Here are results for three molecules from ChEMBL document CHEMBL5653615 (J Biol Chem, 2013).

Calls of active or inactive are those of the source. No cut-off for these calls is given here.

Assay [1] addresses T1, Serine/threonine-protein kinase A-Raf (Homo sapiens) (UniProt P10398).
T1 sequence (whole entry): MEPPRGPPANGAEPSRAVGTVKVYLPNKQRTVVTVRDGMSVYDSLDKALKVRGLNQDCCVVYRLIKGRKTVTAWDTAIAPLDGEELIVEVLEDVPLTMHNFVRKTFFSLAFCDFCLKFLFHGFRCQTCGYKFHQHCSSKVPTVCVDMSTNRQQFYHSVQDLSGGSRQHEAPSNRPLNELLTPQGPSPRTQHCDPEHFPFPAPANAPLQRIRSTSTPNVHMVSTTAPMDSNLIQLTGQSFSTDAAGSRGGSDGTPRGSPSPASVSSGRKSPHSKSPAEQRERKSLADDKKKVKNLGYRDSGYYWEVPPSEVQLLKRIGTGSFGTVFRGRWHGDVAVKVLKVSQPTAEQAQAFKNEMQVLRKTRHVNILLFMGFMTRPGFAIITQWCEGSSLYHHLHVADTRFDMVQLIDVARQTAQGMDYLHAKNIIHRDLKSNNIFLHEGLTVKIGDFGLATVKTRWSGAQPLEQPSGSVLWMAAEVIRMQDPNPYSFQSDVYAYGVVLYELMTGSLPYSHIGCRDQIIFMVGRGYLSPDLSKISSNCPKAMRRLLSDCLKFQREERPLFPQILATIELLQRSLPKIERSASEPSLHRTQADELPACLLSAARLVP
Nature of the assay: Inhibition of human ARAF at 18.6 nM by HotSpot assay relative to control.

Assay [2] has as its target Serine/threonine-protein kinase pim-3 (Homo sapiens) (UniProt Q86V86). Put plainly: Inhibition of human PIM3 at 18.6 nM by HotSpot assay relative to control.
The target of assay [3] is Serine/threonine-protein kinase B-raf (Homo sapiens) (UniProt P15056). Put plainly: Inhibition of human BRAF at 18.6 nM by HotSpot assay relative to control.
Sequence of Serine/threonine-protein kinase B-raf (Homo sapiens) (P15056 whole entry): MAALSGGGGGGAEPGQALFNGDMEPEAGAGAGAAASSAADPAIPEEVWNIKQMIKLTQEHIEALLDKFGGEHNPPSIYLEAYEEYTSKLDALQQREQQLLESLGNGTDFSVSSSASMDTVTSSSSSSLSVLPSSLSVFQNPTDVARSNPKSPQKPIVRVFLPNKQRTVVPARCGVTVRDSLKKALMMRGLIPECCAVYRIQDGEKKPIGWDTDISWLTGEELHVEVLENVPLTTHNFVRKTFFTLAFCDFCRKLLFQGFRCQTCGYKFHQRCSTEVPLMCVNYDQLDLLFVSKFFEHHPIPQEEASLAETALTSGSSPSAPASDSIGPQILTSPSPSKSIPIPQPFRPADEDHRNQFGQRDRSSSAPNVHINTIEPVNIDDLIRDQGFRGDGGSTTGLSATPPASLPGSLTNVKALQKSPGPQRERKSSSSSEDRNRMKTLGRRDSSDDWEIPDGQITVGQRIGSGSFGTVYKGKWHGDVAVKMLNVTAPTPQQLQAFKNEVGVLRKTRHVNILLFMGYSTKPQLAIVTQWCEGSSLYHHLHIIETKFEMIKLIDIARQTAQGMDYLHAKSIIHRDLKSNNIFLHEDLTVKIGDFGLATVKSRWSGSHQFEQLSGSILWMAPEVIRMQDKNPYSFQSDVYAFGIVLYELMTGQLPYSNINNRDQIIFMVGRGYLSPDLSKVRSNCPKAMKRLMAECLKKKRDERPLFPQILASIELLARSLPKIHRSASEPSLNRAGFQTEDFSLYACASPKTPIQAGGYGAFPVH
In assay [4] the target is Glycogen synthase kinase-3 alpha (Homo sapiens) (UniProt P49840). Nature of the assay: Inhibition of human GSK3a at 18.6 nM by HotSpot assay relative to control.
Sequence of Glycogen synthase kinase-3 alpha (Homo sapiens) (P49840 2-483 limits assumed): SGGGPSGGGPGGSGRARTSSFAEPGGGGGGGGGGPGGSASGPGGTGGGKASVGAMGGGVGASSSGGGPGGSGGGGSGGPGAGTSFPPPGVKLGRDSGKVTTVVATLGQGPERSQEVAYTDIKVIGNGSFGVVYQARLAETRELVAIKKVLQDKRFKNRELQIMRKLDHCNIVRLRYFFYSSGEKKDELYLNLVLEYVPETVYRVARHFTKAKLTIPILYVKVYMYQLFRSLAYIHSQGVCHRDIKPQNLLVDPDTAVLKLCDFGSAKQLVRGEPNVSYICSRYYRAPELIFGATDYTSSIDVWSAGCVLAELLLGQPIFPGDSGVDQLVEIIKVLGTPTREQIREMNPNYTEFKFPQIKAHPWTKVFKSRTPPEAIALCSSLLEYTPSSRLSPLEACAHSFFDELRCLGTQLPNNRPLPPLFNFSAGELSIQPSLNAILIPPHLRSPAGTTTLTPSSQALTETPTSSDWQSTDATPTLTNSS
In assay [5] the target is SRSF protein kinase 1 (Homo sapiens) (UniProt Q96SB4). Put plainly: Inhibition of human SRPK1 at 18.6 nM by HotSpot assay relative to control.
Assay [6] in a line: Inhibition of di-phosphorylated human Insulin receptor (978 to 1283 residues) C981S mutant kinase domain expressed in baculovirus infected Sf9 cells incubated for 1 hr by [gamma-33P]ATP assay.
Assay [7] concerns the target Serine/threonine-protein kinase PAK 2 (Homo sapiens) (UniProt Q13177). Put plainly: Inhibition of human PAK2 at 1.82 nM by HotSpot assay relative to control.
Assay [8] has as its target Mitogen-activated protein kinase kinase kinase kinase 5 (Homo sapiens) (UniProt Q9Y4K4). Nature of the assay: Inhibition of human KHS at 1.82 nM by HotSpot assay relative to control.
In assay [9] the target is Macrophage-stimulating protein receptor (Homo sapiens) (UniProt Q04912). Nature of the assay: Inhibition of human MST1R at 1.82 nM by HotSpot assay relative to control.
For assay [10], the target named is T2, Mitogen-activated protein kinase kinase kinase kinase 2 (Homo sapiens) (UniProt Q12851).
T2 sequence (whole entry): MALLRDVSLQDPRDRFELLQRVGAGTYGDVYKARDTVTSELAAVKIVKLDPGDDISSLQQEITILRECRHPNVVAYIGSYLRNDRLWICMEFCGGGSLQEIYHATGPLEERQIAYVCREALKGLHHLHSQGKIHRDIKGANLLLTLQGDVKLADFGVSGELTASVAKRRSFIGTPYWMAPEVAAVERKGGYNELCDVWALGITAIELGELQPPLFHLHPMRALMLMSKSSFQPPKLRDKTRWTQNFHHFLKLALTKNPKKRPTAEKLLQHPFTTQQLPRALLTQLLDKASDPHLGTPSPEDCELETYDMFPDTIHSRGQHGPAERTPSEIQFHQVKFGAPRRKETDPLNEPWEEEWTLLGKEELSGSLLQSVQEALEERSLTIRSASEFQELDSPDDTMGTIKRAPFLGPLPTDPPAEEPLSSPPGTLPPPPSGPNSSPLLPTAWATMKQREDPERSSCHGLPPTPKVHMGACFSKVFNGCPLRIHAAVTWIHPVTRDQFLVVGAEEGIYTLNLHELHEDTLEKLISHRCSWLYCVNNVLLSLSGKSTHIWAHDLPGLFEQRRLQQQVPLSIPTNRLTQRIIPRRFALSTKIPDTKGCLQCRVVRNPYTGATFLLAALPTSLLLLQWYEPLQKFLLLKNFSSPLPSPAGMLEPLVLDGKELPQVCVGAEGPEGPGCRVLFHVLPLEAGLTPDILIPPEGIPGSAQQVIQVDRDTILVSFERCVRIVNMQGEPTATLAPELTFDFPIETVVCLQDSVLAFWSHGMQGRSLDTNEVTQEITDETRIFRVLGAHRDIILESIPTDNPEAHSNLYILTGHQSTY
Put plainly: Inhibition of human GCK at 1.82 nM by HotSpot assay relative to control.

The target in assay [11] is Ribosomal protein S6 kinase alpha-3 (Homo sapiens) (UniProt P51812). Nature of the assay: Inhibition of human RSK2 at 1.82 nM by HotSpot assay relative to control.
Sequence of Ribosomal protein S6 kinase alpha-3 (Homo sapiens) (P51812 whole entry): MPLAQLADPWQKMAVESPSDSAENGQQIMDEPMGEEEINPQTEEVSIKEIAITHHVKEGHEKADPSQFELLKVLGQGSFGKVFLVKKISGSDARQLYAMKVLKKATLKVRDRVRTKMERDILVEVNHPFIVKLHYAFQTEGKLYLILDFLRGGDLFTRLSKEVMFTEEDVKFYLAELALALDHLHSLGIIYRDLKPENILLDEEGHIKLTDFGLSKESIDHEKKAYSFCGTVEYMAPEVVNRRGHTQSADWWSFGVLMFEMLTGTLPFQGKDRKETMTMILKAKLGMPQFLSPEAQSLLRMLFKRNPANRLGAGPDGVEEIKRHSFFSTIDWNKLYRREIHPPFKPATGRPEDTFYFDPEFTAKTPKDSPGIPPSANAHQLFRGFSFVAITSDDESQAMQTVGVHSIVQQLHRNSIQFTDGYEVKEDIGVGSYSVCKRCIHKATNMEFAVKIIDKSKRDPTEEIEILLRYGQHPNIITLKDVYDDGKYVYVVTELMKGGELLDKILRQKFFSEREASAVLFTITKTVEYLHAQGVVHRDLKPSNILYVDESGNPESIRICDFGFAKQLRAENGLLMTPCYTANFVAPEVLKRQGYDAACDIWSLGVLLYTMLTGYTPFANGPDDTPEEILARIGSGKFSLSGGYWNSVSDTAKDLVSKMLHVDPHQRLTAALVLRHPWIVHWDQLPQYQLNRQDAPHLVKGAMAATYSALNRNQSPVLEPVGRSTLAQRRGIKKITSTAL
Assay [12] addresses Cyclin-dependent kinase 2/cyclin E1 (Homo sapiens) (UniProt P24864+P24941). Put plainly: Inhibition of human CDK2/cyclin E at 1.82 nM by HotSpot assay relative to control. The assay is classed as protein-complex assay.
Assay [13] addresses Serine/threonine-protein kinase pim-3 (Homo sapiens) (UniProt Q86V86). Nature of the assay: Inhibition of human PIM3 at 1.82 nM by HotSpot assay relative to control.
In assay [14] the target is Cyclin-dependent kinase 1/cyclin B1 (Homo sapiens) (UniProt P06493+P14635). Put plainly: Inhibition of human CDK1/cyclin B at 1.82 nM by HotSpot assay relative to control. The assay is classed as protein-complex assay.
Sequence of Cyclin-dependent kinase 1/cyclin B1 (Homo sapiens) (P06493 whole entry, looked up): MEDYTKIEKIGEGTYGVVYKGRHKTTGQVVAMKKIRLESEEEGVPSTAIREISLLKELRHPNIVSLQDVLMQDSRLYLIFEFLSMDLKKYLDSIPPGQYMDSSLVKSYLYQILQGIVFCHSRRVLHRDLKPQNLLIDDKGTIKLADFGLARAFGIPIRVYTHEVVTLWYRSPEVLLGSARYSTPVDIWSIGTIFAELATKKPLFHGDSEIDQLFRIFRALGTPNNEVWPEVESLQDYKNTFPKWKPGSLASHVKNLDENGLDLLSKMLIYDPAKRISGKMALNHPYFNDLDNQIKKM
Sequence of Cyclin-dependent kinase 1/cyclin B1 (Homo sapiens) (P14635 whole entry, looked up): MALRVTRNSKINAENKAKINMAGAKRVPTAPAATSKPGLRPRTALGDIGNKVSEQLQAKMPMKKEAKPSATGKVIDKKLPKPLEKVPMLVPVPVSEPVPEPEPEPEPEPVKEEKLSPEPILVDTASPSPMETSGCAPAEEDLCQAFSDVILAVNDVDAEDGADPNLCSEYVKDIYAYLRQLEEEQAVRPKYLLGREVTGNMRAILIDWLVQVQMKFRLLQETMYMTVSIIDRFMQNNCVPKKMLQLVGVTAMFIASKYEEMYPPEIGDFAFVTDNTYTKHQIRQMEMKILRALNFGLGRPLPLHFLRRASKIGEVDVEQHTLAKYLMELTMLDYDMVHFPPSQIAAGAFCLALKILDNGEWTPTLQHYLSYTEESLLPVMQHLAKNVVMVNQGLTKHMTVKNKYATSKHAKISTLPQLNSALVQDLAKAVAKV

Sequence of Serine/threonine-protein kinase PAK 2 (Homo sapiens) (Q13177 whole entry): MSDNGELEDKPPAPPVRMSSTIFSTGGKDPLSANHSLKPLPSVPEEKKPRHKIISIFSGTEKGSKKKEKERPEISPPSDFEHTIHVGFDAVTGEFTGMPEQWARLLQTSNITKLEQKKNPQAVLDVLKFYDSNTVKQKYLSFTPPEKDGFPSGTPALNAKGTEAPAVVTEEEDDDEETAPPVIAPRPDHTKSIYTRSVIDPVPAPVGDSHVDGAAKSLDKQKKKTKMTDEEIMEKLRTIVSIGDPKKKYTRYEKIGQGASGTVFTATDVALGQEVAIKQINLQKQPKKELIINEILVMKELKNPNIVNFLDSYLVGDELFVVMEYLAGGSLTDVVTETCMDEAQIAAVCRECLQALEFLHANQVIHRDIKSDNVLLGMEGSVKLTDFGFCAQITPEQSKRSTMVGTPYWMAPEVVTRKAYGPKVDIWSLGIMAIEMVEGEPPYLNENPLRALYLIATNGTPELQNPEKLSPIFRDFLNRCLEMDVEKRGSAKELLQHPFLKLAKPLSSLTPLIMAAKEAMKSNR
Sequence of Mitogen-activated protein kinase kinase kinase kinase 5 (Homo sapiens) (Q9Y4K4 whole entry, looked up): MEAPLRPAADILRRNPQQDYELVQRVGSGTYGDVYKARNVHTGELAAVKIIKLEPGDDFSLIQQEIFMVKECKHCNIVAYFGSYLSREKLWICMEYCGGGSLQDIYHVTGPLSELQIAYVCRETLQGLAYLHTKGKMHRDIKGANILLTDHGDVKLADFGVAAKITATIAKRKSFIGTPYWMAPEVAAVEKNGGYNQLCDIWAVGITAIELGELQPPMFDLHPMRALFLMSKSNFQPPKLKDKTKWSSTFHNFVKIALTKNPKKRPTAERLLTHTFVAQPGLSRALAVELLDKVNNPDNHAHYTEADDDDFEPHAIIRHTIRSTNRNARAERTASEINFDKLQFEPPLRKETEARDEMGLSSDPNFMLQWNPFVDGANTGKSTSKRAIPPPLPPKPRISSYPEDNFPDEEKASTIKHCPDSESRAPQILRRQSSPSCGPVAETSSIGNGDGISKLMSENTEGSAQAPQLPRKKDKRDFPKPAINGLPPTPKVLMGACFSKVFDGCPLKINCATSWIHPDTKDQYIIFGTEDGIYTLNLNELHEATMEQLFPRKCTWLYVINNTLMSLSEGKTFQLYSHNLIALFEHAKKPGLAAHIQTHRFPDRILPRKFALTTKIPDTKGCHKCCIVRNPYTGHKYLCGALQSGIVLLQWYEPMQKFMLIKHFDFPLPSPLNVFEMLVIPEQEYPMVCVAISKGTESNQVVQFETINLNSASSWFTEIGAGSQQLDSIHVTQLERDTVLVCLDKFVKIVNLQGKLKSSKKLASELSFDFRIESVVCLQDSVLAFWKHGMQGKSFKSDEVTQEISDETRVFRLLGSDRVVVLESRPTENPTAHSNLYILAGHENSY

As for `C[C@]1(O)C[C@@H](c2nc(-c3ccc4ccc(-c5ccccc5)nc4c3)c3c(N)nccn32)C1`, the inhibition was 5.16% in [1]; 20.9% in assay [2]; 7.79% in [3]; -3.5% in assay [4]; -6.12% in assay [5].

Turning to `Oc1n[nH]c2nnc(-c3c(-c4ccccc4)nn4ccccc34)cc12`, the inhibition entry in [6] is “inactive”.

On to `C[C@@]1(C(=O)Nc2ccc(F)nc2)CCCN1c1nc(Nc2cc(C3CC3)n[nH]2)c2cccn2n1`, for which the inhibition in assay [7] is -8.78%; in assay [8], -3.57%; in assay [9], 0.1%; in [10], -0.04%; in assay [11] it was 2.83%; in assay [12], 3.51%. Besides, the inhibition in [13] amounted to 19.1%; in assay [14] it was 0.77%.
